# Assay results from patent publication US20260234139A1, “PGDH INHIBITORS AND METHODS OF MAKING AND USING” (Epirium Bio Inc., priority 2023, published 2026).
# How the values were obtained:
# [1] = test system: A549; test: A549 EC50 (cell assay, method not described); assay type: cell-based
# [2] = target: T1, 15-PGDH/HPGD (Homo sapiens, UniProt P15428); test: hPGDH inhibitor screening biochemical assay; conditions: 10 nM enzyme, 15 μM Prostaglandin E2, 0.25 mM NAD, fluorescence ex/em 340/485 nm
# T1 construct: purchased R&D System 5660-DH
# T1 sequence (P15428 1-266): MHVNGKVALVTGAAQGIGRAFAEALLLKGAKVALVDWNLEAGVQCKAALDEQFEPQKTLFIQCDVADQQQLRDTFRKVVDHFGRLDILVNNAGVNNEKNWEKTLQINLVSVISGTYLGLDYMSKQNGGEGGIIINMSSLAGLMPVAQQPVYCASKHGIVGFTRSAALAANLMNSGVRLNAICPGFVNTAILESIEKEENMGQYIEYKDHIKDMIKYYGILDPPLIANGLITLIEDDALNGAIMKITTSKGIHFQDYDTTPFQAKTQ
# Experimental: A hydroxyprostaglandin dehydrogenase inhibition screening biochemical assay can be performed to assess the synthesized inhibitors provided herein. Provided herein is an exemplary biochemical assay for hPGDH inhibitor screening.
# The in vitro biochemical assay can be performed in white, 384 plates in total 20 μl reaction volume consisting of 10 nM of 15-PGDH/HPGD (R&D System #5660-DH), 15 μM Prostaglandin E2 (Sigma, Cat #P5640-10 MG) and 0.25 mM B-Nicotinamide adenine dinucleotide sodium salt (Sigma, Cat #N0632-5G) made in reaction buffer (50 mM Tris-HCl, pH 7.5, 0.01% Tween 20) at 10-point dose response curve for test/tool compounds. Briefly, 5 μl (4×) of compounds solution and 5 μl (final concentration, 10 nM) of enzyme solution is added to white 384 well plates and incubated for 10 mins at 37° C. 5 μl (4×) of Prostaglandin E2 and 5 μl (4×) of β-Nicotinamide adenine dinucleotide sodium salt is added to the wells and incubated for 10 mins at room temperature. Fluorescence is recorded at ex/em=340 nm/485 nm.
compound,measurement,setting,value
CC(C)(O)C[C@@H](O)c1cnc2c(cnn2-c2cccc(-c3nnc[nH]3)c2)c1 [Compound 43A],EC50,"[1]; Homo sapiens, A549, A549",≥ 1000 nM
same,IC50,[2],< 100 nM
"CCOC(C)(C)C(O)c1cnc2c(cnn2-c2cccc(-c3nnc[nH]3)c2)c1 (single isomer, unassigned) [Compound 34A]",EC50,[1]; A549,< 100 nM
same,IC50,[2],< 100 nM
CNC(=O)c1ccc(-n2ncc3cc([C@H](O)COC4CCC4)cnc32)cc1 [Compound 84A],EC50,"[1]; Homo sapiens, A549, A549",< 100 nM
same,IC50,[2],< 100 nM
CC(C)(OCC(F)F)[C@H](O)c1cnc2c(cnn2-c2cccc(-c3nnc[nH]3)c2)c1 [Compound 61B],EC50,"[1]; Homo sapiens, A549, A549",100 to 1000 nM
same,IC50,[2],≥ 1000 nM
O=C(O)CCc1ccc(-n2ncc3cc([C@H](O)COC4CCCC4)cnc32)cc1F [Compound 88B],EC50,"[1]; Homo sapiens, A549, A549",100 to 1000 nM
same,IC50,[2],< 100 nM
CC(C)(C)OC[C@H](O)c1cnc2c(cnn2-c2cccc(-c3nnc[nH]3)c2)c1 [Compound 32A],EC50,"[1]; Homo sapiens, A549, A549",≥ 1000 nM
same,IC50,[2],< 100 nM
CC(C)OC[C@H](O)c1cnc2c(cnn2-c2ccc3nc(N4CCOCC4)nn3c2)c1 [Compound 60B],EC50,"[1]; Homo sapiens, A549, A549",100 to 1000 nM
same,IC50,[2],≥ 1000 nM
"CC(C)C[C@H](O)C(O)c1cnc2c(ccn2-c2cccc(-c3nnc[nH]3)c2)c1 (stereo in doubt) [Compound 3B, (1S,2S)-4-methyl-1-[1-[3-(4H-1,2,4-triazol-3-yl)phenyl]pyrrolo[2,3-b]pyridin-5-yl]pentane-1,2-diol]",EC50,[1]; A549,< 100 nM
same,IC50,[2],< 100 nM
CC(C)OCC[C@H](O)c1cnc2c(cnn2-c2cccc(-c3nnc[nH]3)c2)c1 [Compound 44B],EC50,"[1]; Homo sapiens, A549, A549",100 to 1000 nM
same,IC50,[2],< 100 nM
CC(C)(O)C[C@H](O)c1cnc2c(cnn2-c2cccc(-c3nnc[nH]3)c2)c1 [Compound 43B],EC50,"[1]; Homo sapiens, A549, A549",< 100 nM
same,IC50,[2],< 100 nM
COC1([C@@H](O)c2cnc3c(cnn3-c3cccc(-c4nnc[nH]4)c3)c2)CC1 [Compound 59A],EC50,"[1]; Homo sapiens, A549, A549",100 to 1000 nM
same,IC50,[2],< 100 nM
CC(C)OCC[C@@H](O)c1cnc2c(ccn2-c2cccc(-c3nnc[nH]3)c2)c1 [Compound 41B],EC50,"[1]; Homo sapiens, A549, A549",< 100 nM
same,IC50,[2],< 100 nM
CCOC(C)(C)[C@@H](O)c1cnc2c(cnn2-c2ccc(C(=O)O)cc2)c1 [Compound 53B],EC50,"[1]; Homo sapiens, A549, A549",< 100 nM
same,IC50,[2],< 100 nM
Cc1nn(-c2ccc(C(=O)O)cc2)c2ncc([C@H](O)COC3CCC3)cc12 [Compound 109B],EC50,"[1]; Homo sapiens, A549, A549",< 100 nM
same,IC50,[2],< 100 nM
O=C(O)c1ccc(-n2ncc3cc([C@H](O)COC4CCCC4)cnc32)cc1 [Compound 89B],EC50,"[1]; Homo sapiens, A549, A549",< 100 nM
same,IC50,[2],< 100 nM
CC(C)(C)OC[C@@H](O)c1cnc2c(cnn2-c2cccc(-c3nnc[nH]3)c2)c1 [Compound 32B],EC50,"[1]; Homo sapiens, A549, A549",< 100 nM
same,IC50,[2],< 100 nM
CC(C)OC[C@H](O)c1cnc2c(ccn2-c2cccc(-c3nnc[nH]3)c2)c1 [Compound 29A],EC50,"[1]; Homo sapiens, A549, A549",< 100 nM
same,IC50,[2],< 100 nM
COCCNC(=O)c1ccc(-n2ncc3cc([C@H](O)COC4CCC4)cnc32)cc1 [Compound 118B],EC50,"[1]; Homo sapiens, A549, A549",100 to 1000 nM
same,IC50,[2],100 to 1000 nM
CCOC1([C@@H](O)c2cnc3c(cnn3-c3ccc(C(=O)O)cc3)c2)CC1 [Compound 58B],EC50,"[1]; Homo sapiens, A549, A549",100 to 1000 nM
same,IC50,[2],< 100 nM
CCOC1([C@H](O)c2cnc3c(cnn3-c3ccc(C(=O)O)cc3)c2)CC1 [Compound 58A],EC50,"[1]; Homo sapiens, A549, A549",≥ 1000 nM
same,IC50,[2],≥ 1000 nM
"O=C(O)c1ccc(-n2ncc3cc(C(O)C4CC(F)(F)C4)cnc32)cc1 (single isomer, unassigned) [Compound 45A]",EC50,"[1]; Homo sapiens, A549, A549",100 to 1000 nM
same,IC50,[2],< 100 nM
O=C(O)c1ccc(-n2ccc3nc([C@H](O)COCC4CC4)cnc32)cc1 [Compound 112B],EC50,"[1]; Homo sapiens, A549, A549",100 to 1000 nM
same,IC50,[2],< 100 nM
C[C@H](OC1CCC1)[C@H](O)c1cnc2c(cnn2-c2ccc(C(=O)O)cc2)c1 [Compound 108C],EC50,"[1]; Homo sapiens, A549, A549",100 to 1000 nM
same,IC50,[2],100 to 1000 nM
CC(C)CC[C@@H](O)c1cnc2c(ccn2-c2ccc(C(=O)O)cc2)n1 [Compound 40B],EC50,"[1]; Homo sapiens, A549, A549",< 100 nM
same,IC50,[2],< 100 nM
"CC(C)OCC(O)c1cnc2c(cnn2-c2cccc(-c3nnc[nH]3)c2)c1 (single isomer, unassigned) [Compound 18A]",EC50,[1]; A549,< 100 nM
same,IC50,[2],< 100 nM
CC(C)(C)OC[C@H](O)c1cnc2c(ccn2-c2cccc(-c3nnc[nH]3)c2)n1 [Compound 26A],EC50,"[1]; Homo sapiens, A549, A549",100 to 1000 nM
same,IC50,[2],< 100 nM
O[C@@H](c1cnc2c(cnn2-c2cccc(-c3nnc[nH]3)c2)c1)C1COC1 [Compound 28A],EC50,"[1]; Homo sapiens, A549, A549",< 100 nM
same,IC50,[2],< 100 nM
